In patent US20090318492A1, “INDOLE COMPOUNDS HAVING C4-ACIDIC SUBSTITUENTS AND USE THEREOF AS PHOSPHOLIPASE-A2 INHIBITORS” (priority 2005, published 2009):

Molecular target: T1, Porcine group 1B phospholipase A2 (pps PLA2) (Sus scrofa, UniProt P00592)
T1 construct: purchased
Assay: Example 8 fluorimetric PLA2 inhibition assay (PPyrPM), porcine enzyme
Format: biochemical
Text: In this example, a fluorimetric assay procedure was used to evaluate the indole and indole-related compounds of the invention as inhibitors of group 1B phospholipase A2 (PLA2) from human, mouse and porcine. A description of this assay is found in articles: Leslie, C C and Gelb, M H (2004) Methods in Molecular Biology “Assaying phospholipase A2 activity”, 284:229-242; Singer, A G, et al. (2002) Journal of Biological Chemistry “Interfacial kinetic and binding properties of the complete set of human and mouse groups I, II, V, X, and XII secreted phospholipases A2”, 277:48535-48549, which are incorporated herein as references.
In general, this assay used a phosphatidylmethanol substrate with a pyrene fluorophore on the terminal end of the sn-2 fatty acyl chain. […] The effect of a given inhibitor and inhibitor concentration on human, mouse and porcine phospholipase was determined. […]
The following procedure was performed to evaluate the inhibitory potency of the evaluated compounds. • 1. […] The fluorescence was read using an excitation of 342 nm and an emission of 395 nm.
Evaluated compounds were tested in duplicate and their values were averaged to plot the inhibition curve and calculate the IC50. […] The IC50 was calculated using the BioDataFit 1.02 (Four Parameter Model) software package. […]

T1 sequence (P00592 23-146): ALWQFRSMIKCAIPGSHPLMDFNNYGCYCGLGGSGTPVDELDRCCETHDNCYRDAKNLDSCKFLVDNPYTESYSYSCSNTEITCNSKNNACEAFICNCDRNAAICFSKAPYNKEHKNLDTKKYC

For `Cc1c(C(=O)C(N)=O)c2c(OCC(=O)NS(=O)(=O)CCCC(=O)O)cccc2n1Cc1ccccc1` [ILY-IV-40, 4-[2-(3-Aminooxalyl-1-benzyl-2-methyl-1H-indol-4-yloxy)-acetylsulfamoyl]-butyric acid], the IC50 was 1010 nM.
